Experimental data reported in patent US20220073642A1, “METHODS OF USING SURUFATINIB IN TREATING ADVANCED PANCREATIC AND EXTRA-PANCREATIC NEUROENDOCRINE TUMORS” (HUTCHISON MEDIPHARMA LIMITED, priority 2020, published 2022).
Values joined by “and” are separate entries in the source; they are usually repeats but may differ in a detail not shown here. Identical values can stand only once.

Legend:
[1] = SANET-ep Phase III study, safety and exposure (NCI CTCAE v4.03); type: in vivo, human; conditions: N = 129
Experimental: (§1) This study is a randomized, double-blind, placebo-controlled, multi-center Phase III study to assess the efficacy and safety of Surufatinib in treating advanced extra-pancreatic neuroendocrine tumors.
(§2) Surufatinib, 300 mg, once daily (QD), orally
(§3) Continuous administration (every 4 weeks as a treatment cycle).

NETs = assay: Phase I dose escalation clinical study, extension stage (NCT02133157); type: in vivo, human; conditions: 21 efficacy evaluable patients with NETs
From the text: This multi-center, open-label, dose-escalation phase I study investigated the safety, pharmacokinetic characteristics, and preliminary anti-tumor activity of surufatinib in patients with advanced solid tumors. The primary objective was to determine the maximum tolerated dose (MTD), recommended phase II trial dose (RPTD), and the safety profile of Surufatinib when administered to patients with advanced malignant solid tumors. A secondary objective was to evaluate the pharmacokinetic profile of Surufatinib, and exploratory objectives included evaluating the ORR among patients given Surufatinib therapy and determining whether biomarkers for angiogenesis might reflect any clinical efficacy shown by Surufatinib. A modified Fibonacci 3+3 construct was used to design this dose escalation study and determine the MTD of Surufatinib.
In addition, similar efficacy trends have also been shown in the Phase Ib/II study of patients with NETs (Jianming Xu et al. Clin Cancer Res. 25(12):3486-3494). […] Therefore, further clinical investigation of Surufatinib is valuable.

advanced pancreatic NETs = assay: phase 1 study of surufatinib in patients from the United States; type: in vivo, human
Experimental: Although this trial was conducted fully in a Chinese patient population, the results appear to be applicable to Western patients. Encouraging results have been reported from an ongoing phase 1 study of surufatinib in patients from the United States with heavily treated advanced pancreatic NETs (4 median prior lines of therapy), with an objective response rate of 25.0% (4/16: 3 confirmed partial response and 1 unconfirmed partial response). The safety profile observed in this Western patient population was similar to those observed in the SANET-p trial, as well as in other clinical studies of surufatinib in NETs patients.
As compared with other trials involving patients with extra-pancreatic NETs, the population enrolled in this study was heterogenous. In addition, only Chinese patients were enrolled in this study, which may limit the extrapolation of the results to other populations: however, historically no ethnic differences in the efficacy of antiangiogenic agents for NETs have been reported.

[2] = tested on: advanced extra-pancreatic neuroendocrine tumors; assay: SANET-ep Phase III study, efficacy (RECIST 1.1); type: in vivo, human
From the text: as §1
The targeted population are progressive, locally advanced or distant metastatic extra-pancreatic NETs (including, but not limited to: lungs, thymus gland and gastrointestinal origins like stomach, duodenum, liver, jejunum, ileum, colon, caecum, vermiform appendix and rectum, and unknown origin) patients with no possibility of radical resection of tumor, and of pathologically with low or intermediate grade (G1 or G2). For Gastrointestinal neuroendocrine tumors (GI-NETs), G1 is defined as <2 mitoses/10 high-power field
(§4) [HPF] and/or <3% Ki-67 index; G2 is defined as 2-20/10 HPF and/or 3-20% Ki-67 index; for NETs originating from the lung and thymus gland, G1 is defined as <2 mitoses/10 HPF and no necrosis; G2 is defined as 2-10/10 HPF and/or foci of necrosis. NETs from origin other than GI-NET, lung and thymus, or from unknown origins should be graded according to the GI-NET grading criteria. If the mitotic ratio and Ki-67 index correspond to different grade, the higher grade should be used to assign classification. All patients must provide tumor samples for central pathology review to check as of whether the diagnostics and grade score comply with inclusion criteria. Patients must have radiological documentation of progression of disease within 12 months prior to randomization. Patients must have previously progressed no more than two types of systemic anti-tumor therapy, including long-acting somatostatin analogs (SSAs), interferon, PRRT (peptide receptor radionuclide therapy), mammalian target of rapamycin (mTOR) inhibitors or chemotherapy (all chemotherapies are deemed as a single therapy regardless of drug or time); patients who are unable or unwilling to receive such treatments are also eligible if all other criteria are met.
Approximately 273 patients will be randomly assigned (in 2:1 ratio) to the following treatment groups based on interactive web response system IWRS:
as §2, §3
(§5) According to the randomized result, the patients will receive continuous oral treatment, every 4-week treatment cycle until progression of disease occurs, intolerable toxicity or other protocol-specified end-of-treatment criteria is met.
(§6) In accordance with RECIST 1.1, the tumor should be assessed every 8 weeks (±3 days) within the first year and every 12 weeks (±3 days) after the patient has been treated for more than one year.
(§7) 1) Primary therapeutic endpoint: PFS (according to RECIST 1.1 criteria)
(§8) 2) Secondary therapeutic endpoint: Objective Response Rate of the tumor (ORR), Disease Control Rate (DCR), Duration of Response (DoR), Time to Response (TTR) and Overall Survival (OS) (according to RECIST 1.1 criteria)

[3] = tested on: advanced, well-differentiated pancreatic neuroendocrine tumors; assay: SANET-p Phase III study, efficacy (RECIST 1.1); type: in vivo, human; conditions: for Odds ratio, Disease control rate / Odds ratio, Objective response rate: vs placebo
From the text: as §4, with “The targeted population are progressive, locally advanced or distant metastatic, low- or intermediate grade (G1 or G2) pancreatic NETs patients. G1 is defined as <2 mitoses/10 high-power field [HPF]” for “[HPF]”, “index.” for “index; for NETs originating from the lung and thymus gland, G1 is defined as <2 mitoses/10 HPF and no necrosis; G2 is defined as 2-10/10 HPF and/or foci of necrosis. NETs from origin other than GI-NET, lung and thymus, or from unknown origins should be graded according to the GI-NET grading criteria.”
Approximately 195 patients will be randomly assigned (in 2:1 ratio) to the following treatment groups based on interactive web response system IWRS:
as §2, §3, §5, §6, §7, §8

[4] = SANET-p Phase III study, safety and exposure (NCI CTCAE v4.03); conditions: N = 113
From the text: SANET-p (NCT02589821) is a randomized, double-blind, placebo-controlled Phase III study evaluating the efficacy and safety of surufatinib compared to placebo in patients with progressive, advanced (unresectable local progression or distant metastasis), well-differentiated pancreatic neuroendocrine tumors.
Continuous administration (every 4 weeks as a treatment cycle). Surufatinib can be taken with or without food and should be taken as a single administration per day. It is recommended to take the drug at the same time every day. If the patient vomits after dosing surufatinib, there is no need to make up.
During the treatment, physician should closely monitor the patients and adjust dosage according to the safety and tolerability of individual patients, including dose interruption, dose reduction or permanently discontinue treatment. The dose adjustment should follow the guidance of interruption first and then dose reduction.

[5] = Solubility of surufatinib; type: physicochemical
From the text: As used here, the term “surufatinib” (formerly named sulfatinib”)refers to N-(2-(dimethylamino)ethyl)-1-(3-(4-(2-methyl-1H-indol-5-yloxy)pyrimidin-2-ylamino)phenyl)methanesulfonamide or N-(2-(dimethylamino)ethyl)-1-(3-(4-(2-methyl-1H-indol-5-yloxy)pyrimidin-2-ylamino)phenyl)methanesulfonamide. Surufatinib is a small-molecule kinase inhibitor which mainly acts on VEGFRs-1, 2, 3, the FGFR1 and CSF1R. Surufatinib is a study drug formulated as an odorless, white or off-white powder in capsules, with strengths of 50 mg and 200 mg. […] Herein, “surufatinib” may be referred to as “drug,” “active agent,” “a therapeutically active agent,” or “API.”

[6] = treatment-related AE, safety population
[7] = ITT set, 95% CI, listed as surufatinib
[8] = treatment-related AE, safety set

Cc1cc2cc(Oc3ccnc(Nc4cccc(CS(=O)(=O)NCCN(C)C)c4)n3)ccc2[nH]1 [Surufatinib, N-(2-(dimethylamino)ethyl)-1-(3-((4-((2-methyl-1H-indol-5-yl)oxy)pyrimidin-2-yl)amino)phenyl)-methanesulfonamide]
Discontinuation due to proteinuria [1]: 1.6%
Discontinuation due to urine protein present [1]: 2.3%
hypertension resulting in dose interruption or reduction [1]: 15.5%
proteinuria resulting in dose interruption or reduction [1]: 29.5%
treatment discontinuation for adverse events [1]: 14.7%
Treatment-related adverse event, any grade ([1]; safety population): 97.7%
ALT increased, ≥Grade 3 [1, 6]: 3.1%
AST increased, ≥Grade 3 [1, 6]: 3.9%
Anemia, ≥Grade 3 [1, 6]: 4.7%
Hyperbilirubinemia, ≥Grade 3 [1, 6]: 3.9%
Hypertension, ≥Grade 3 [1, 6]: 36.4%
Protein urine present, ≥Grade 3 [1, 6]: 3.9%
Proteinuria, ≥Grade 3 [1, 6]: 19.4%
DCR (NETs): 85.7%
ORR (NETs): 38.1%
not evaluable for response (NETs): 3 patients
patients achieved PR (NETs): 8 patients
patients achieved SD (NETs): 10 patients
objective response rate (advanced pancreatic NETs; advanced pancreatic NETs, 2/15): 13.3%
Disease control rate (advanced pancreatic NETs; advanced pancreatic NETs, 11/15): 73.3%
objective response rate (advanced pancreatic NETs; heavily treated advanced pancreatic NETs, 4/16 (3 confirmed, 1 unconfirmed partial response)): 25.0%
Duration of response ([2]; BIIRC-assessed): 5.6 months
Time to response ([2]; BIIRC-assessed): 2.9 months
Disease control rate ([2]; BIIRC-assessed, N = 126): 77.8%
objective response rate ([2]; BIIRC-assessed, N = 126): 7.9%
Best overall response: Partial response ([2]; Investigator-assessed, N = 126): 13 n
Disease control rate ([2]; Investigator-assessed, N = 126): 86.5%
objective response rate ([2]; Investigator-assessed, N = 126): 10.3%
median progression-free survival as assessed by the investigators ([2]; N = 129, 300 mg QD orally): 9.2 months
progression-free survival HR vs placebo, BIIRC-assessment ([2]; in vivo): 0.66
progression-free survival HR vs placebo, investigators ([2]; in vivo): 0.33
progression-free survival HR vs placebo, post-hoc adjudicated BIIRC results ([2]; in vivo): 0.57
Duration of response ([2]; investigator-assessed): 5.6 months
Time to response ([2]; investigator-assessed): 3.7 months
reduction of the risk of disease progression or death compared with placebo ([2]; investigators): 67%
HR for median progression-free survival, NETs of unknown or uncommon tumor origins ([2]; post-hoc subgroup analysis): 0.50
median progression-free survival, BIIRC-assessment ([2]; sensitivity analysis): 7.4 months
median progression-free survival, patients previously treated with everolimus ([2]; subgroup, 7.8% of patients): 7.4 months
Duration of response ([3]; BIIRC-assessed): 15.2 months
Time to response ([3]; BIIRC-assessed): 3.9 months
Best overall response: Non-complete response, non-progressive disease ([3]; BIIRC-assessed, N = 104): 0 n
Odds ratio, Disease control rate ([3]; BIIRC-assessed): 2.5
Odds ratio, Objective response rate ([3]; BIIRC-assessed): 8.8
PFS (BIIRC assessment), median ([3]; ITT set, N = 113): 13.9 month
PFS (Investigator's assessment), median ([3]; ITT set, N = 113, 300 mg QD orally): 10.9 month
PFS (BIIRC assessment), HR (Surufatinib/Placebo) ([3]; ITT set, 95% CI): 0.339 (0.209, 0.549)
PFS (Investigator's assessment), HR (Surufatinib/Placebo) ([3]; ITT set, 95% CI): 0.491 (0.319, 0.755)
PFS (BIIRC assessment), HR (Surufatinib/Placebo) [3, 7]: 0.34
PFS (Investigator's assessment), HR (Surufatinib/Placebo) [3, 7]: 0.49
DoR, median ([3]; Table 4, N = 15): 15.2 month
TTR, median ([3]; Table 4, N = 15): 3.9 month
Disease control rate, BIIRC-assessed ([3]; interim ITT set, N = 104): 84.6%
Disease control rate, investigator-assessed ([3]; interim ITT set, N = 104): 80.8%
Objective response rate, BIIRC-assessed ([3]; interim ITT set, N = 104): 14.4%
Objective response rate, investigator-assessed ([3]; interim ITT set, N = 104): 19.2%
median PFS longer than in the placebo cohort ([3]; investigator assessment): 7.2 months
reduction of the risk of disease progression/death vs placebo ([3]; investigator assessment): 50.9% and 51%
reduction of the risk of disease progression/death vs placebo ([3]; investigator assessment, listed as surufatinib): 51%
Duration of response ([3]; investigator-assessed): 7.4 months
Time to response ([3]; investigator-assessed): 3.8 months
Best overall response: Partial response ([3]; investigator-assessed, N = 104): 20 n
Odds ratio, Disease control rate ([3]; investigator-assessed): 2.1
Odds ratio, Objective response rate ([3]; investigator-assessed): 12.4
DCR, OR (odds ratio) vs placebo ([3]; investigator, 95% CI): 2.1 (0.9, 4.8)
ORR, OR (odds ratio) vs placebo ([3]; investigator, 95% CI): 12.4 (1.8, 522.8)
on-treatment deaths attributed to adverse events [4]: Two
Arthralgia, ≥Grade 3 [4, 8]: 0 n
Back pain, ≥Grade 3 [4, 8]: 0 n
Bilirubin conjugated increased, ≥Grade 3 [4, 8]: 0 n
Blood creatinine increased, ≥Grade 3 [4, 8]: 0 n
Blood lactate dehydrogenase increased, ≥Grade 3 [4, 8]: 0 n
Blood thyroid stimulating hormone increased, ≥Grade 3 [4, 8]: 0 n
Decreased appetite, ≥Grade 3 [4, 8]: 0 n
Dizziness, ≥Grade 3 [4, 8]: 0 n
Fatigue, ≥Grade 3 [4, 8]: 0 n
Haemoglobin increased, ≥Grade 3 [4, 8]: 0 n
Headache, ≥Grade 3 [4, 8]: 0 n
Hyperbilirubinaemia, ≥Grade 3 [4, 8]: 0 n
Hypercholesterolaemia, ≥Grade 3 [4, 8]: 0 n
Hypoalbuminaemia, ≥Grade 3 [4, 8]: 0 n
Hypothyroidism, ≥Grade 3 [4, 8]: 0 n
Nausea, ≥Grade 3 [4, 8]: 0 n
Occult blood positive, ≥Grade 3 [4, 8]: 0 n
solubility in methyl alcohol or ethyl alcohol ([5]; methyl alcohol or ethyl alcohol): slightly soluble
solubility in water ([5]; water): insoluble
